Earlier results on 3 compounds are cited in publication PMC7435928, “Preclinical Evaluation of NHS-Activated Gold Nanoparticles Functionalized with Bombesin or Neurotensin-Like Peptides for Targeting Colon and Prostate Tumours” (Molecules, 2020).

Data set [1] concerns prostate tumour bearing mice. The following applies: 60 min p.i.; cited from earlier work. On the procedure: (§1) Several tracers have been developed to target and facilitate the molecular imaging of colon or prostate cancer, such as: ^68Ga-NGR with over 2.7 ± 0.65% ID/g in colon tumour at 30 min p.i., [^18F]FDG with 2.5 ± 0.5% ID/g [^18F]FDG in colon tumours, [^18F]fluorocholine (FCH) with 7.9 ± 5% ID/g at 60 min p.i. in prostate tumour bearing mice. Compared to these, the values obtained for tumour uptake using the four studied nanotracers are between 2.53 ± 0.26% ID/g for ^68Ga-DOTA-NMN-AuNP to 9.82 ± 2.28% ID/g for ^68Ga-DOTA-PEG(4)-BBN(7-14)-AuNP in colon tumours and 2.79 ± 0.4% ...

A further data set relates to colon tumour. The following applies: in vivo; cited from earlier work. The protocol:
as §1

In data set [2] the target is bombesin BBRS1, BBRS2 and BBRS3 receptors. Set-up: method as in printed for the value. The following applies: target receptors BBRS1, BBRS2; not measured in this paper, ref not given; cited from earlier work.

As to `C[N+](C)(CF)CCO` [[^18F]fluorocholine (FCH), [^18F]fluorocholine], in data set [1], the Tumour uptake is reported as 7.9 ± 5 % ID/g. Take [^18F]FDG: the Tumour uptake in the data set with colon tumour is listed as 2.5 ± 0.5 % ID/g. A word on the Kd: it is the constant that tells how readily two partners part at equilibrium. Take `COc1ccc(C2(CNC(=O)[C@](C)(Cc3c[nH]c4ccccc34)NC(=O)Nc3ccc([N+](=O)[O-])cc3)CCCCC2)nc1` [PD 176252]: the Kd in data set [2] was 1 nM.
